In patent publication US20080200454A1, “CARBON-LINKED TETRAHYDRO-PYRAZOLO-PYRIDINE MODULATORS OF CATHEPSIN S” (priority 2007, published 2008) one finds IC50 data, which are given here for 22 compounds.

For the assay, the target named is Recombinant human cathepsin S (CatS) (Homo sapiens, UniProt P25774). As to the kind of experiment: Recombinant human cathepsin S (CatS) inhibition assay, fluorogenic substrate Z-Valine-Valine-Arginine-AMC.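 Also: Baculovirus-expressed CatS in pH 5.0 sodium acetate buffer with DTT and NaCl, fluorescence read each minute over 20 min, inhibition derived from rate slope.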

pIC50: −log10 of the molar value. Where a name gives a salt, the structure may show the parent alone. Read-outs that look alike come from different tables or passages of the source.

Chain of Recombinant human cathepsin S (CatS) (P25774 115-331): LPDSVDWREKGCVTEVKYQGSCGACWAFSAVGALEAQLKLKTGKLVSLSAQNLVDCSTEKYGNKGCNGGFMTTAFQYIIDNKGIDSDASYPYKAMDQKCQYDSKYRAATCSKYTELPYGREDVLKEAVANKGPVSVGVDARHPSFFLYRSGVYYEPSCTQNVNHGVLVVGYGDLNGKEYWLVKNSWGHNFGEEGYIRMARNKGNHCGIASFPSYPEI

In the case of `CN1CCN(CCCCc2cc(-c3nn(CCCN4CCC(N5CCCC5=O)CC4)c4c3CN(S(C)(=O)=O)CC4)ccc2Cl)CC1` [Example 112, 1-{1-[3-(3-{4-Chloro-3-[4-(4-methyl-piperazin-1-yl)-butyl]-phenyl}-5-methanesulfonyl-4,5,6,7-tetrahydro-pyrazolo[4,3-c]pyridin-1-yl)-propyl]-piperidin-4-yl}-pyrrolidin-2-one], the negative-log IC50 (pIC50) is 5.31.

Consider `CS(=O)(=O)N1CCc2c(c(-c3ccc(Cl)c(C#CC4CCCCC4)c3)nn2C[C@@H](O)CN2CCC(C3CCNCC3)CC2)C1` [Example 472, (2S)-1-(4,4′-Bipiperidin-1-yl)-3-{3-[4-chloro-3-(cyclohexylethynyl)phenyl]-5-(methylsulfonyl)-4,5,6,7-tetrahydro-1H-pyrazolo[4,3-c]pyridin-1-yl}propan-2-ol], for which the pIC50 was 5.35.

On to `CCNCc1cc(C#Cc2cc(-c3nn(CCCN4CCOC[C@@H]4C)c4c3CN(C(=O)C(N)=O)CC4)ccc2Cl)ccc1Cl` [Example 566, 2-(3-[4-Chloro-3-({4-chloro-3-[(ethylamino)methyl]phenyl}ethynyl)phenyl]-1-{3-[(3S)-3-methylmorpholin-4-yl]propyl}-1,4,6,7-tetrahydro-5H-pyrazolo[4,3-c]pyridin-5-yl)-2-oxoacetamide], for which the negative logarithm of the IC50 (pIC50) was 7.70.

Consider `CS(=O)(=O)N1CCc2c(c(-c3ccc(Cl)c(C#Cc4cccc(CNCc5ccccc5)c4)c3)nn2CCCN2CCOCC2)C1` [Example 379, 1-[3-({2-Chloro-5-[5-(methylsulfonyl)-1-(3-morpholin-4-ylpropyl)-4,5,6,7-tetrahydro-1H-pyrazolo[4,3-c]pyridin-3-yl]phenyl}ethynyl)phenyl]-N-(phenylmethyl)methanamine], for which the pIC50 is 6.54.

As to `C[C@H]1COCCN1CCCn1nc(-c2ccc(Cl)c(C#Cc3ccc(Cl)c(C(=O)N4CCNCC4)c3)c2)c2c1CCN(C(=O)C(N)=O)C2` [Example 574, 2-[3-(4-Chloro-3-{[4-chloro-3-(piperazin-1-ylcarbonyl)phenyl]ethynyl}phenyl)-1-{3-[(3S)-3-methylmorpholin-4-yl]propyl}-1,4,6,7-tetrahydro-5H-pyrazolo[4,3-c]pyridin-5-yl]-2-oxoacetamide], the pIC50 (CatS IC50) was 6.85.

As for `CS(=O)(=O)N1CCc2c(c(-c3ccc(Cl)c(CCCNS(=O)(=O)c4ccc(Cl)c(Cl)c4)c3)nn2CCCN2CCOCC2)C1` [Example 82, 3,4-Dichloro-N-(3-{2-chloro-5-[5-methanesulfonyl-1-(3-morpholin-4-yl-propyl)-4,5,6,7-tetrahydro-1H-pyrazolo[4,3-c]pyridin-3-yl]-phenyl}-propyl)-benzenesulfonamide], the negative-log IC50 (pIC50) was 5.21.

For `CC(C)(C)C1CCN(CCCn2nc(-c3ccc(Cl)c(C#Cc4ccc(CNCc5ccc(Cl)cc5)cc4)c3)c3c2CCN(S(C)(=O)=O)C3)CC1` [Example 372, 1-[4-({2-Chloro-5-[1-{3-[4-(1,1-dimethylethyl)piperidin-1-yl]propyl}-5-(methylsulfonyl)-4,5,6,7-tetrahydro-1H-pyrazolo[4,3-c]pyridin-3-yl]phenyl}ethynyl)phenyl]-N-[(4-chlorophenyl)methyl]methanamine], the pIC50 (CatS IC50) was 7.22.

For the compound `CS(=O)(=O)N1CCc2c(c(-c3ccc(Cl)c(C#Cc4ccc5c(c4)CN[C@@H](C(=O)N4CCOCC4)C5)c3)nn2CCCN2CCOCC2)C1` [Example 541, (3R)-7-({2-Chloro-5-[5-(methylsulfonyl)-1-(3-morpholin-4-ylpropyl)-4,5,6,7-tetrahydro-1H-pyrazolo[4,3-c]pyridin-3-yl]phenyl}ethynyl)-3-(morpholin-4-ylcarbonyl)-1,2,3,4-tetrahydroisoquinoline], the pIC50 (CatS IC50) is 6.02.

`CN1CCC(C2CCN(C[C@H](O)Cn3nc(-c4ccc(Cl)c(C#Cc5ccc(Cl)cc5)c4)c4c3CCN(S(C)(=O)=O)C4)CC2)CC1` [Example 240, (2S)-1-[3-{4-Chloro-3-[(4-chlorophenyl)ethynyl]phenyl}-5-(methylsulfonyl)-4,5,6,7-tetrahydro-1H-pyrazolo[4,3-c]pyridin-1-yl]-3-(1′-methyl-4,4′-bipiperidin-1-yl)propan-2-ol]: the pIC50 was 8.00.

For the compound `CS(=O)(=O)N1CCc2c(c(-c3ccc(Cl)c(C#Cc4ccc(CNCc5nccs5)cc4)c3)nn2CCCN2CCOCC2)C1` [Example 456, 1-[4-({2-Chloro-5-[5-(methylsulfonyl)-1-(3-morpholin-4-ylpropyl)-4,5,6,7-tetrahydro-1H-pyrazolo[4,3-c]pyridin-3-yl]phenyl}ethynyl)phenyl]-N-(1,3-thiazol-2-ylmethyl)methanamine], the pIC50 (CatS IC50) is 6.92.

For `CC(C)(C)OC(=O)N1CCC(C2CCN(C[C@H](O)Cn3nc(-c4ccc(Cl)c(CCc5ccc(Cl)cc5)c4)c4c3CCN(S(C)(=O)=O)C4)CC2)CC1` [Example 245, 1,1-Dimethylethyl 1′-{(2S)-3-[3-{4-chloro-3-[2-(4-chlorophenyl)ethyl]phenyl}-5-(methylsulfonyl)-4,5,6,7-tetrahydro-1H-pyrazolo[4,3-c]pyridin-1-yl]-2-hydroxypropyl}-4,4′-bipiperidine-1-carboxylate], the pIC50 is 7.52.

Consider `CS(=O)(=O)N1CCc2c(c(-c3ccc(Cl)c(CCCNS(=O)(=O)c4ccccc4C(=O)O)c3)nn2CCCN2CCC(N3CCCC3=O)CC2)C1` [Example 88, 2-{3-[2-Chloro-5-(5-methanesulfonyl-1-{3-[4-(2-oxo-pyrrolidin-1-yl)-piperidin-1-yl]-propyl}-4,5,6,7-tetrahydro-1H-pyrazolo[4,3-c]pyridin-3-yl)-phenyl]-propylsulfamoyl}-benzoic acid, trifluoroacetic acid salt], for which the pIC50 is 6.28.

Take `CNCCCNC(=O)c1cc(C#Cc2cc(-c3nn(CCCN4CCSCC4)c4c3CN(C(=O)C(N)=O)CC4)ccc2Cl)ccc1Cl` [Example 565, 5-[(5-{5-[Amino(oxo)acetyl]-1-(3-thiomorpholin-4-ylpropyl)-4,5,6,7-tetrahydro-1H-pyrazolo[4,3-c]pyridin-3-yl}-2-chlorophenyl)ethynyl]-2-chloro-N-[3-(methylamino)propyl]benzamide]: the pIC50 (CatS IC50) was 7.70.

Regarding `NC(=O)N1CCc2c(c(-c3ccc(Cl)c(C#Cc4ccc(C(=O)NCc5ccc(Cl)cc5)cc4)c3)nn2CCCN2CCSCC2)C1` [Example 547, 3-(4-Chloro-3-{[4-({[(4-chlorophenyl)methyl]amino}carbonyl)phenyl]ethynyl}phenyl)-1-(3-thiomorpholin-4-ylpropyl)-1,4,6,7-tetrahydro-5H-pyrazolo[4,3-c]pyridine-5-carboxamide], the pIC50 is 6.92.

Take `CN(C)C(=O)N1CCc2c(c(-c3ccc(Cl)c(C#Cc4ccc(CNCc5ccc(Cl)cc5)cc4)c3)nn2CCCN2CCOCC2)C1` [Example 498, 3-(4-Chloro-3-{[4-({[(4-chlorophenyl)methyl]amino}methyl)phenyl]ethynyl}phenyl)-N,N-dimethyl-1-(3-morpholin-4-ylpropyl)-1,4,6,7-tetrahydro-5H-pyrazolo[4,3-c]pyridine-5-carboxamide]: the pIC50 was 5.34.

On to `CS(=O)(=O)N1CCc2c(c(-c3ccc(Cl)c(C#Cc4ccc(CNCc5ccc(Cl)cc5)cc4)c3)nn2CCCN2CCC(N3CCCCC3=O)CC2)C1` [Example 338, 1′-{3-[3-(4-Chloro-3-{[4-({[(4-chlorophenyl)methyl]amino}methyl)phenyl]ethynyl}phenyl)-5-(methylsulfonyl)-4,5,6,7-tetrahydro-1H-pyrazolo[4,3-c]pyridin-1-yl]propyl}-1,4′-bipiperidin-2-one], for which the pIC50 (CatS IC50) was 7.70.

For the compound `NC(=O)N1CCc2c(c(-c3ccc(Cl)c(C#Cc4ccc(CNCc5ccc(Cl)cc5)cc4)c3)nn2CCCN2CCCC2)C1` [Example 453, 3-(4-Chloro-3-{[4-({[(4-chlorophenyl)methyl]amino}methyl)phenyl]ethynyl}phenyl)-1-(3-pyrrolidin-1-ylpropyl)-1,4,6,7-tetrahydro-5H-pyrazolo[4,3-c]pyridine-5-carboxamide], under “CatS IC50”, the negative-log IC50 (pIC50) was 6.85.

Take `CS(=O)(=O)N1CCc2c(c(-c3ccc(Cl)c(CCc4ccc(F)cc4F)c3)nn2CCCN2CCOCC2)C1` [Example 59, 3-{4-Chloro-3-[2-(2,4-difluoro-phenyl)-ethyl]-phenyl}-5-methanesulfonyl-1-(3-morpholin-4-yl-propyl)-4,5,6,7-tetrahydro-1H-pyrazolo[4,3-c]pyridine]: the pIC50 was 6.18.

In the case of `CS(=O)(=O)N1CCc2c(c(-c3ccc(Cl)c(C#Cc4ccc(NCC#N)cc4)c3)nn2CCCN2CCOCC2)C1` [Example 322, {[4-({2-Chloro-5-[5-(methylsulfonyl)-1-(3-morpholin-4-ylpropyl)-4,5,6,7-tetrahydro-1H-pyrazolo[4,3-c]pyridin-3-yl]phenyl}ethynyl)phenyl]amino}acetonitrile], the pIC50 (CatS IC50) is 6.14.

Consider `CN(C)C(=O)[C@@H]1Cc2ccc(C#Cc3cc(-c4nn(CCCN5CCOCC5)c5c4CN(S(C)(=O)=O)CC5)ccc3Cl)cc2CN1` [Example 193, (3S)-7-({2-Chloro-5-[5-(methylsulfonyl)-1-(3-morpholin-4-ylpropyl)-4,5,6,7-tetrahydro-1H-pyrazolo[4,3-c]pyridin-3-yl]phenyl}ethynyl)-N,N-dimethyl-1,2,3,4-tetrahydroisoquinoline-3-carboxamide], for which, under “CatS IC50”, the pIC50 is 7.30.

Take `NC(=O)N1CCc2c(c(-c3ccc(Cl)c(C#Cc4ccc(C(=O)NCc5cccnc5)cc4)c3)nn2CCCN2CCSCC2)C1` [Example 162, 3-{4-Chloro-3-[(4-{[(pyridin-3-ylmethyl)amino]carbonyl}phenyl)ethynyl]phenyl}-1-(3-thiomorpholin-4-ylpropyl)-1,4,6,7-tetrahydro-5H-pyrazolo[4,3-c]pyridine-5-carboxamide]: the pIC50 is 7.05.

As for `CS(=O)(=O)N1CCc2c(c(-c3ccc(Cl)c(CCCCN4CCCC4)c3)nn2CCCN2CCC(N3CCCC3=O)CC2)C1` [Example 109, 1-[1-(3-{3-[4-Chloro-3-(4-pyrrolidin-1-yl-butyl)-phenyl]-5-methanesulfonyl-4,5,6,7-tetrahydro-pyrazolo[4,3-c]pyridin-1-yl}-propyl)-piperidin-4-yl]-pyrrolidin-2-one], the pIC50 is 5.64.

What is called pIC50 is −log10 of the IC50, conventionally taken in molar units.
